Laboratory results as given in patent US20030171379A1, “Methods of treating, preventing, or inhibiting inflammation with Mactanamide compounds” (priority 2001, published 2003).

Columns and labels:
[1] = tested on: RTX-induced inflammation (edema) of the mouse ear; assay: Resiniferatoxin (RTX) assay, mouse ear edema; type: in vivo; conditions: topical in acetone, 50 ug/ear Mactanamide with 0.1 ug RTX per ear, 30 minutes, left ear weight minus right ear (acetone) weight
Description: A control, acetone, was applied to all right ears. After a 30 minute incubation, the mice were sacrificed, the ears removed, and bores taken and weighed.
Edema was measured by subtracting the weight of the right ear (control) from the weight of the left ear. The results were recorded as % decrease (inhibition) or % increase (potentiation) in edema relative to the control group edema.

[2] = tested on: PMA-induced inflammation (edema) of the mouse ear; assay: Inhibition of mouse ear edema (PMA mouse ear model); type: in vivo; conditions: topical in acetone, 25 ug/ear Mactanamide with 2 ug/ear PMA, 3 hours 20 minutes, left ear weight minus right ear (acetone) weight
Description: The efficacy of Mactanamide compounds as an anti-inflammatory agent was established by the following assay. Mactanamide was topically applied in acetone to the inside pinnae of the ears of mice in a solution comprising an edema-causing irritant, phorbol 12-myristate 13-acetate (PMA). Specifically, 2 μg/ear of PMA alone or in combination with 25 μg/ear of Mactanamide was applied to the left ears (5 mice per treatment group) and acetone was applied to all right ears. After 3 hours, 20 minutes incubation, the mice were sacrificed, the ears removed and bores taken and weighed. Edema was measured by subtracting the weight of the right ear (acetone control) from the weight of the left ear (treated). Results were recorded as % decrease (inhibition) or % increase (potentiation) in edema relative to the PMA control group edema.

CN1C(=O)C(Cc2c(O)cccc2O)NC(=O)C1Cc1ccccc1 (centres unmarked) [Mactanamide]
Edema (mg ± SEM) [1]: 0.9 ± 0.5 mg
Edema (mg ± SEM) [2]: 2.6 ± 1.1 mg
